Key:
[1] = biological target: HDAC2 (Homo sapiens, UniProt Q92769); assay: HDAC enzyme activity test, HDAC2; assay type: biochemical; conditions: Table 11, eleven HDAC isozymes; read-out: Inhibition ability (IC50) against HDAC2
Experimental: Then, 0.3 μg of enzyme and 10 μM of substrate per well were added, reacted at 30° C. for 60 minutes. Thereto, Fluor de Lys® Developer II (BML-KI176) was added and reacted for 30 minutes. […] From the data, the respective IC50 were calculated by GraphPad Prism 4.0 program.

[2] = system: collagen-induced arthritis model; assay: Effectiveness of compound 87 in a collagen-induced arthritis model; assay type: in vivo, DBA1J mice; conditions: for clinical score decreased, compared with the positive control group: vs ITF2357 50 mg/kg group
Description: 7-week aged male DBA1J mice were used in the experiment. The animal facility was kept at constant temperature and constant humidity with a 12-hr dark/12-hr light cycle, and the animals were allowed to access food and water ad libitum. The animals were acclimated to the cage for 7 days.
Each arthritis-onset animals were selected and then promptly used in the experiments. The experimental animal groups consist of: • A. two vehicle-control groups administered with only vehicle via s.c. (subcutaneous injection) and p.o. (per oral), • B. a positive control group administered with ITF2357 of 50 mg/kg, and • C. two compound test groups administered with compound 87 in each doses of 10 and 50 mg/kg.
A solution of ITF2357 for administration was prepared using 0.5% methylcellulose as a vehicle. It was administered orally to the animals in a volume of 10 ml/kg once a day for 7 days. A solution of compound 87 for administration was prepared using DMSO as a vehicle just before administration. It was administered in a volume of 2 ml/kg via s.c. once a day for 7 days. Two vehicle-control groups were administered with only vehicle once a day for 7 days via s.c. and p.o. separately.
Bovine type 2 collagen (Chondrex) and complete Freund's adjuvant (Chondrex) are mixed in 1:1 to become an emulsion. Each 0.1 ml of the obtained emulsion was injected to the tail of each mouse intradermally. After 21 days, Bovine type 2 collagen (Chondrex) and incomplete Freund's adjuvant (Chondrex) are mixed in 1:1 to become an emulsion. Each 0.1 ml of the obtained emulsion was injected to the hips of each mouse intradermally for boosting. After boosting, feet of the mice were observed once a day. When clinical score was occurred, the drug administration and its evaluation were started. The criterion of clinical score was according to Experimental Example 3.
All the results were expressed as mean±SEM, and each test group and the control groups (vehicle-control group or positive control group) were compared using one-way ANOVA test (Dunnett's test, p<0.001) with GrapicPad Prism 5.0 program.

HDAC2, sequence (Q92769 whole entry, species assumed): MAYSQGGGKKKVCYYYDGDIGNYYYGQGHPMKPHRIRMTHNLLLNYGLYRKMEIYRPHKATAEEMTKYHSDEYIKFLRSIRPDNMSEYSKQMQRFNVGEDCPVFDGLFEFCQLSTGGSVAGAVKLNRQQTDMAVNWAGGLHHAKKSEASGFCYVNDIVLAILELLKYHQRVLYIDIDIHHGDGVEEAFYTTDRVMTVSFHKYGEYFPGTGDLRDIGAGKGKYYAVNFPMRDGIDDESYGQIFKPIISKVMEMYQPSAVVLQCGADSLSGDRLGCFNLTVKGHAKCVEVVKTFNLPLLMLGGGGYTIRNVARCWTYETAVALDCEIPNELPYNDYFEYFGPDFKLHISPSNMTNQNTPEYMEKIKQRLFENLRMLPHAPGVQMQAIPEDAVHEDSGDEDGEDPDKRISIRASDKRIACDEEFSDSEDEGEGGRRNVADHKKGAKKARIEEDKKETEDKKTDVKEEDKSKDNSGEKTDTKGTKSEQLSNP

Compound	IC50 [1] [nM]	clinical score decreased, compared with the positive control group ([2]; 10 mg/kg s.c. once a day for 7 days) [%]	clinical score decreased, compared with the positive control group ([2]; 50 mpk s.c. once a day for 7 days) [%]	body-weight loss ([2]; collagen-induced arthritis mice, 10 and 50 mg/kg s.c.)
CN1CCN(C(=O)N(CCCCCCC(=O)NO)c2ccc(-c3ccc4cnn(C)c4c3)cc2)CC1 [CKD-581, reference compound]	1.58	–	–	–
O=C(NO)c1ccc(Cn2c3c(c4ccccc42)C(=O)C(CN2CCOCC2)CC3)cc1 (stereo not shown) [Compound 87, N-hydroxy-4-((3-(morpholinomethyl)-4-oxo-1,2,3,4-tetrahydrocarbazol-9-yl)methyl)benzamide]	–	44	68	no observation of body-weight loss
